# According to US6214805A, “RNase L activators and antisense oligonucleotides effective to treat RSV infections” (priority 1997, dated 2001):
# Legend:
# Hep-2 Cells [1] = assay: Cytotoxicity by morphological changes in HEp-2 cells (CPE inhibition assay); format: cell-based, human; conditions: Homo sapiens
# Procedure: (§1) Embryonic African green monkey kidney cells (MA-104) were obtained from BioWhittaker, Inc. (Walkersville, Md.). HEp-2 cells were propagated from a human epidermoid carcinoma of the larynx (American Type Culture Collection, ATCC; Rockville, Md.). The cells were grown in minimal essential medium. (MEM, Gibco-BRL, Gaitherburg, Md.) supplemented with 0.1% NaHCO3 and 10% fetal bovine serum (FBS, Hyclone Laboratories, Logan Utah.). When performing antiviral assays, serum was reduced to 2% and 50 μg/ml gentamicin (Sigma Chemical Company, St. Louis, Mo.) was added to the medium.
# Morphological changes due to compound cytotoxicity were graded on a scale of 0-5; grade 5 was defined as 100% cytotoxicity. The 50% cytotoxic dose (IC50 was calculated by regression analysis. A selective index (S.I.) was calculated for each compound [S.I.=(IC50)/(EC50 ].
# MA-104 Cells = assay: Cytotoxicity to MA-104 cells (visual and dye uptake, rapidly dividing cells); format: cell-based, murine; conditions: MA104
# Excerpt: A comparison of the efficacies of spA4 -antiRSV3'3'T/(8281-8299) treatment and conventional ribarvirin treatment can be obtained by determining the RSV-inhibitory concentration and the cytotoxic concentration of each compound. Cultures of the human laryngeal carcinoma cell line HEp-2 and the […] renal cell line MA-104 were established and infected with an MOI=0.005. Cultures were fed twice daily. Treatment with either ribavirin or spA4 -antiRSV3'3'T/(8281-8299) was begun simultaneously with infection and continued for four days. Treatment was then withdrawn and the test read on day 5. The effects of treatment on RSV infection were reported as 1) an EC50, the concentration at which there was a 50% reduction in the observable cytopathic effects of infection and 2) an EC90, the concentration at which there was a 90% reduction in viral production. […] Therapeutic efficacy is estimated by the Selectivity Index, which is the ratio of IC50 /EC50.
# IC50 50% inhibitory concentration for cytotoxicity to cells (visual
# Hep-2 Cells [2] = assay: Neutral red uptake assay of cytotoxicity in HEp-2 cells; format: cell-based, human; conditions: Homo sapiens
# Procedure: as §1
# (§2) This assay was performed by a modified method as described by Cavenaugh et al. (Cavenaugh et al. 1990, Invest. New Drugs 8:347-354). Briefly, medium was removed from each well of a plate scored for CPE from a CPE inhibition assay, 0.2 ml of neutral red (0.034% in PSS) was added to each of the wells of that plate and the plate incubated for 2 hr at 37° C. in the dark. The neutral red solution was removed from the wells and the wells rinsed twice with PBS (pH 7.4). Equal volumes (0.1 ml) of absolute ethanol and Sorenson citrate buffer (0.1 M sodium citrate, 0.1 M HCI, pH 4.2) were mixed together and added to each well. Plates were incubated in the dark for 30 min. at room temperature to solubilize the dye. The plates were then gently mixed on a 96-well plate adapted vortexer for 1 min. Absorbances at 540 nm and 450 nm were read with a microplate reader (Bio-Tek EL 1309; Bio-Tek Instruments, Inc. Winooski, Vt.). Absorbance values were expressed as percents of untreated controls and EC50 and IC50 values were calculated by regression analysis.
# RSV CH18537 (B) [3] = assay: Neutral red uptake assay in HEp-2 cells, RSV strain CH18537; format: cell-based, Respiratory syncytial virus; conditions: Table 12, neutral red
# Procedure: as §2
# (§3) In this series, MP351 was added once a day for two days with fresh medium
# RSV CH18537 (B) [4] = assay: CPE inhibition assay in HEp-2 cells, RSV strain CH18537; format: cell-based, Respiratory syncytial virus; conditions: Table 12, CPE
# Procedure: (§4) The CPE inhibition assay used in this study was performed as described by Sidwell and Huffman (Sidwell et al., 1971, Appl. Microbiol. 22:7979-7801) with slight modifications. Varying concentrations of test compounds were added to each plate containing near confluent cell monolayers (1×10^5 cells/well) followed immediately by the addition of virus at a multiplicity of infection (MOI)=0.01, and then incubated at 37° C. On the following day, the medium from each plate was removed and fresh compound added. The assay was stopped at the end of the sixth day when the virus cytopathic effect in the virus infected, untreated control cells affected all cells. All compounds were assayed for virus inhibition in quadruplicate and for cytotoxicity in duplicate. For each compound, two wells were set aside as uninfected, untreated cell controls per test and four wells per test received virus only and represented controls for virus replication. […] For all CPE-based assays, the 50% effective concentration (EC50) was calculated by regression analysis using the means of the CPE ratings at each concentration of compound.
# as §3
# [5] = test system: RSV 393 (clinical isolate); assay: CPE inhibition assay in HEp-2 cells, RSV 393; format: cell-based, Respiratory syncytial virus; conditions: Table 12, CPE
# Procedure: as §4, §3
# RSV strain A2 = assay: Virus yield reduction assay in HEp-2 cells; format: cell-based, Respiratory syncytial virus; conditions: human respiratory syncytial virus, compound added twice daily
# Procedure: EC50 & EC90 : concentration required to reduce virus (RSV strain
# Both compounds were added to the cells twice daily.
# [6] = test system: RSV 393 (clinical isolate); assay: Neutral red uptake assay in HEp-2 cells, RSV 393; format: cell-based, Respiratory syncytial virus; conditions: Table 12, neutral red
# Procedure: as §2, §3
# RSV Long (A) = assay: Neutral red uptake assay in HEp-2 cells, RSV strain Long; format: cell-based, Respiratory syncytial virus; conditions: Table 12, neutral red
# Procedure: as §2, §3
# [7] = human respiratory syncytial virus, 48 h, once a day for two days
structure (smiles),measurement,setting,value
NC(=O)c1ncn([C@@H]2O[C@H](CO)[C@@H](O)[C@H]2O)n1 [Ribavirin],IC50,"Hep-2 Cells [1]; HEp-2, 0 h, Table 13, CPE, q.d., Day 0, HEp-2",240 µM
same,IC50,"Hep-2 Cells [1]; HEp-2, 24 h, Table 10, CPE, q.d. 1 day (added along with virus, never replenished), HEp2",230 µM
same,IC50,"Hep-2 Cells [1]; HEp-2, 24 h, Table 13, CPE, q.d., Day 1, HEp-2",320 µM
same,IC50,"Hep-2 Cells [1]; HEp-2, 48 h, Table 10, CPE, B.I.D. 2 days, HEp2",230 µM
same,IC50,"Hep-2 Cells [1]; HEp-2, 48 h, Table 13, CPE, q.d., Day 2, HEp-2",320 µM
same,IC50,"Hep-2 Cells [1]; HEp-2, 72 h, Table 10, CPE, B.I.D. 3 days, HEp2",720 µM
same,IC50,"Hep-2 Cells [1]; HEp-2, 72 h, Table 10, CPE, q.d. 3 days, HEp2",230 µM
same,IC50,"Hep-2 Cells [1]; HEp-2, 96 h, Table 10, CPE, B.I.D. 4 days, HEp2",230 µM
same,IC50,"Hep-2 Cells [1]; HEp-2, 96 h, Table 10, CPE, q.d. 4 days, HEp2",230 µM
same,IC50,"Hep-2 Cells [1]; HEp-2, Table 12, CPE, test with 393 (clinical isolate), HEp-2",96 µM
same,IC50,"Hep-2 Cells [1]; HEp-2, Table 12, CPE, test with CH18537 (B), HEp-2",208 µM
same,IC50,"Hep-2 Cells [1]; HEp-2, Table 12, CPE, test with Long (A), HEp-2",205 µM
same,IC50,MA-104 Cells,210 µM
same,IC50,"Hep-2 Cells [2]; HEp-2, 0 h, Table 13, neutral red, q.d., Day 0, HEp-2",328 µM
same,IC50,"Hep-2 Cells [2]; HEp-2, 24 h, Table 11, neutral red, q.d. 1 day (added along with virus, never replenished), HEp2",480 µM
same,IC50,"Hep-2 Cells [2]; HEp-2, 24 h, Table 13, neutral red, q.d., Day 1, HEp-2",1130 µM
same,IC50,"Hep-2 Cells [2]; HEp-2, 48 h, Table 11, neutral red, B.I.D. 2 days, HEp2",1050 µM
same,IC50,"Hep-2 Cells [2]; HEp-2, 48 h, Table 13, neutral red, q.d., Day 2, HEp-2",320 µM
same,IC50,"Hep-2 Cells [2]; HEp-2, 72 h, Table 11, neutral red, B.I.D. 3 days, HEp2",700 µM
same,IC50,"Hep-2 Cells [2]; HEp-2, 72 h, Table 11, neutral red, q.d. 3 days, HEp2",1010 µM
same,IC50,"Hep-2 Cells [2]; HEp-2, 96 h, Table 11, neutral red, B.I.D. 4 days, HEp2",600 µM
same,IC50,"Hep-2 Cells [2]; HEp-2, 96 h, Table 11, neutral red, q.d. 4 days, HEp2",730 µM
same,IC50,"Hep-2 Cells [2]; HEp-2, Table 12, neutral red, test with 393 (clinical isolate), HEp-2",96 µM
same,IC50,"Hep-2 Cells [2]; HEp-2, Table 12, neutral red, test with CH18537 (B), HEp-2",233 µM
same,IC50,"Hep-2 Cells [2]; HEp-2, Table 12, neutral red, test with Long (A), HEp-2",280 µM
same,SI,RSV CH18537 (B) [3],19
same,EC50,RSV CH18537 (B) [3]; [7],12 µM
same,SI,RSV CH18537 (B) [4],52
same,EC50,RSV CH18537 (B) [4]; [7],4 µM
same,SI,[5],24
same,EC50,[5]; [7],4 µM
same,EC50,RSV strain A2; virus yield reduced by 50%,40 µM
same,EC90,RSV strain A2; virus yield reduced by 90%,80 µM
same,SI,[6],24
same,EC50,[6]; [7],4 µM
same,SI,RSV Long (A),23
same,EC50,RSV Long (A); [7],12 µM
